Data taken from ChEMBL document CHEMBL1201862, “PubChem BioAssay data set” (2004).
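Exposure lasted 48 hours, with cells grown in 96-well plates and compounds tested at five concentrations. Abbreviation: GI50, concentration required for 50% inhibition of growth.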 Activity calls are given as the source filed them. Rule as the data show it: active = GI50 up to about 1.1 µM and inactive = higher.

How the values were obtained:
Assay in all cases: NCI anticancer screen, dose series, 48 h
HCT-15 = test system: HCT-15
SN12C = test system: SN12C
OVCAR-3 = test system: OVCAR-3
UACC-62 = test system: UACC-62
RXF 393 = test system: RXF 393
NCI/ADR-RES = test system: NCI/ADR-RES
MDA-MB-435 = test system: MDA-MB-435
786-0 = test system: 786-0
DU-145 = test system: DU-145
MOLT-4 = test system: MOLT-4
SNB-19 = test system: SNB-19
T47D = test system: T47D
SK-MEL-2 = test system: SK-MEL-2
BT-549 = test system: BT-549
A498 = test system: A498
HOP-92 = test system: HOP-92
HOP-62 = test system: HOP-62
HT-29 = test system: HT-29
NCI-H522 = test system: NCI-H522

| SMILES | GI50 (HCT-15) | GI50 (SN12C) | GI50 (OVCAR-3) | GI50 (UACC-62) | GI50 (RXF 393) | GI50 (NCI/ADR-RES) | GI50 (MDA-MB-435) | GI50 (786-0) | GI50 (DU-145) | GI50 (MOLT-4) | GI50 (SNB-19) | GI50 (T47D) | GI50 (SK-MEL-2) | GI50 (BT-549) | GI50 (A498) | GI50 (HOP-92) | GI50 (HOP-62) | GI50 (HT-29) | GI50 (NCI-H522) |
| --- | --- | --- | --- | --- | --- | --- | --- | --- | --- | --- | --- | --- | --- | --- | --- | --- | --- | --- | --- |
| CNC1=CC(=O)C2=C(C1=O)[C@H]1CC[C@]3(C)C(=O)CC[C@H]3[C@@H]1CC2 | 12.4 µM | 19.9 µM (inactive) | 1.16 µM (inactive) | 14 µM (inactive) | 15.2 µM (inactive) | 13 µM (inactive) | 5.66 µM (inactive) | 17.3 µM (inactive) | 15 µM (inactive) | 11.1 µM (inactive) | 17.7 µM (inactive) | 18.9 µM (inactive) | 2.63 µM (inactive) | 16.4 µM (inactive) | 22.2 µM (inactive) | 12 µM (inactive) | 15.2 µM (inactive) | – | – |
| Cc1c2ccccc2c(/C=N/NC(=O)CSCC(=O)N/N=C/c2c3ccccc3c(C)c3ccccc23)c2ccccc12 | > 100 µM | 61.2 µM (inactive) | 47.5 µM (inactive) | > 64.7 µM (inactive) | 16.3 µM (inactive) | > 63.5 µM (inactive) | > 79.6 µM (inactive) | 20.7 µM (inactive) | > 55.8 µM (inactive) | 27.8 µM (inactive) | 47 µM (inactive) | > 25.6 µM (inactive) | > 78.3 µM (inactive) | 40.7 µM (inactive) | 21.7 µM (inactive) | 13.2 µM (inactive) | 12.9 µM (inactive) | > 39.3 µM (inactive) | – |
| Cc1c(NC(=O)CSC(=S)N2CCN(Cc3ccccc3)CC2)c(=O)n(-c2ccccc2)n1C | > 100 µM | > 100 µM (inactive) | > 100 µM (inactive) | – | > 100 µM (inactive) | > 100 µM (inactive) | > 100 µM (inactive) | > 100 µM (inactive) | > 100 µM (inactive) | > 100 µM (inactive) | > 100 µM (inactive) | > 100 µM (inactive) | > 100 µM (inactive) | > 100 µM (inactive) | – | – | > 100 µM (inactive) | > 100 µM (inactive) | > 100 µM (inactive) |
| Cc1cc(S(=O)(=O)Nc2nc(N)n(C)n2)c(S)cc1Cl | > 10 µM | > 10 µM (inactive) | > 10 µM (inactive) | > 10 µM (inactive) | > 10 µM (inactive) | > 10 µM (inactive) | > 10 µM (inactive) | > 10 µM (inactive) | > 10 µM (inactive) | > 10 µM (inactive) | > 10 µM (inactive) | > 10 µM (inactive) | > 10 µM (inactive) | > 10 µM (inactive) | > 10 µM (inactive) | – | > 10 µM (inactive) | > 10 µM (inactive) | > 10 µM (inactive) |
| Cc1nn(C(=O)c2ccncc2)c2c1C(c1ccc(Cl)cc1)SC(=N)N2 (stereo not drawn) | > 10 µM | > 10 µM (inactive) | > 10 µM (inactive) | > 10 µM (inactive) | > 10 µM (inactive) | > 10 µM (inactive) | > 10 µM (inactive) | > 10 µM (inactive) | > 10 µM (inactive) | > 10 µM (inactive) | > 10 µM (inactive) | > 10 µM (inactive) | > 10 µM (inactive) | > 10 µM (inactive) | – | > 10 µM (inactive) | > 10 µM (inactive) | > 10 µM (inactive) | – |
| CC1=CC(=O)C[C@]2(C)[C@@H](O)CC(C(C)CO)C[C@@H]12 (stereo partly drawn) | > 100 µM | > 100 µM (inactive) | > 100 µM (inactive) | > 100 µM (inactive) | > 100 µM (inactive) | > 100 µM (inactive) | > 100 µM (inactive) | > 100 µM (inactive) | > 100 µM (inactive) | > 100 µM (inactive) | > 100 µM (inactive) | > 100 µM (inactive) | > 100 µM (inactive) | > 100 µM (inactive) | > 100 µM (inactive) | > 100 µM (inactive) | > 100 µM (inactive) | > 100 µM (inactive) | – |
| COc1cccc(-c2cc(O)c3cc(N4CCOCC4)ccc3n2)c1 | 0.0383 µM | 0.0678 µM (active) | 0.0201 µM (active) | 0.0258 µM (active) | – | 0.0845 µM (active) | 0.00834 µM (active) | 0.0411 µM (active) | 0.038 µM (active) | 0.0391 µM (active) | 0.0543 µM (active) | > 10 µM (inactive) | 0.0313 µM (active) | 0.964 µM (active) | – | 0.0376 µM (active) | 0.0586 µM (active) | – | 0.0158 µM (active) |
| C[C@@H]1CC[C@H]2C(C)(C)[C@H]3C[C@@]12CC[C@@]3(C)O [CEDROL] | 59.3 µM | 26.7 µM (inactive) | > 100 µM (inactive) | > 100 µM (inactive) | – | > 100 µM (inactive) | 92.5 µM (inactive) | 34.3 µM (inactive) | > 100 µM (inactive) | 35.5 µM (inactive) | > 100 µM (inactive) | > 100 µM (inactive) | > 100 µM (inactive) | > 100 µM (inactive) | > 100 µM (inactive) | 72.6 µM (inactive) | > 100 µM (inactive) | 36 µM (inactive) | 45.9 µM (inactive) |
